Measured values from patent publication US20250099448A1, “HETEROCYCLIC COMPOUNDS” (Hoffmann-La Roche Inc., priority 2022, published 2025).
pIC50: −log10 of the molar value.

Biological target: T1, MAGL protein (Homo sapiens, UniProt Q99685)
T1 sequence (Q99685 1-303): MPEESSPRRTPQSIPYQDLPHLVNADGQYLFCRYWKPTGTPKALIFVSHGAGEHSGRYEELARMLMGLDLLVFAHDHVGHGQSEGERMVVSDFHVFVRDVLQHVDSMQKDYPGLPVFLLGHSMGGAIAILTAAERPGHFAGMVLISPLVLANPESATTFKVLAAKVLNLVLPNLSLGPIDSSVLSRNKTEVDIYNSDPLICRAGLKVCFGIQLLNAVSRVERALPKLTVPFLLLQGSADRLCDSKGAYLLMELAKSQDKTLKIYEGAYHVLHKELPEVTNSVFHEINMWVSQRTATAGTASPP
Assay: 2-AG assay: MAGL inhibitory activity by hydrolysis of 2-arachidonoylglycerol to arachidonic acid, followed by mass spectrometry
Format: biochemical
Conditions: 8 μM 2-arachidonoylglycerol, 15 min preincubation, 30 min reaction at RT, RapidFire MS readout
Method: Compounds of formula (I) were profiled for MAGL inhibitory activity by determining the enzymatic activity by following the hydrolysis of the natural substrate 2-arachidonoylglycerol (2-AG) resulting in arachidonic acid, which can be followed by mass spectrometry. This assay is hereinafter abbreviated “2-AG assay”. The 2-AG assay was carried out in 384 well polypropylene assay plates. Compound dilutions were made in 100% DMSO in a polypropylene plate in 3-fold dilution steps to give a final concentration range in the assay from 12.5 μM to […]. Compound dilutions were added to MAGL protein in assay buffer (50 mM TRIS, 1 mM EDTA, 0.01% (v/v) Tween-20, 2.5% (v/v) DMSO). After shaking, the plate was incubated for 15 min at RT. To start the reaction, 2-arachidonoylglycerol in assay buffer was added. The final concentrations in the assay was […] for MAGL protein and 8 μM 2-arachidonoylglyerol. After shaking and 30 min incubation at RT, the reaction was quenched by the addition of two assay volumes of acetonitrile containing 4 μM of d8-arachidonic acid. The amount of arachidonic acid formed was traced by an online SPE system (Agilent Rapidfire) coupled to a triple quadrupole mass spectrometer. A C18 SPE cartridge (Agilent G9205A) was used in an acetonitrile/water liquid setup. The mass spectrometer was operated in negative electrospray mode following the mass transitions 303.1→259.1 for arachidonic acid and 311.1→267.0 for d8-arachidonic acid. The activity of the compounds was calculated based on the ratio of intensities [arachidonic acid/d8-arachidonic acid].

| pIC50 | SMILES |
| --- | --- |
| 8.01 | CC(C)(C)c1nnc(CN2CC3(C2)CN(C(=O)N2CC4(CC(c5nc(C6CC6)n[nH]5)C4)C2)C3)s1 [compound 487] |
| 9.00 | O=C(N1CC2(CC(Cc3ccc(S(=O)(=O)C(F)(F)F)cn3)C2)C1)N1CC2(CC(c3nc(C4(O)CC4)n[nH]3)C2)C1 [compound 616] |
| 8.97 | O=C(N1CC2(CC(Cc3cnn(CC(F)(F)F)c3)C2)C1)N1CC2(CC(c3nc(C4CC4)n[nH]3)C2)C1 [compound 764] |
| 6.73 | O=C(N1CC2(CC(c3nc(C4CC4)n[nH]3)C2)C1)N1CC2(CN(Cc3cccn(CC(F)(F)F)c3=O)C2)C1 [compound 572] |
| 9.05 | CS(=O)(=O)c1ccc(CC2CC3(C2)CN(C(=O)N2CC4(CC(c5nnc(C6CC6)[nH]5)C4)C2)C3)cc1C(F)(F)F [compound 46] |
| 9.72 | O=C(N1CC2(CC(Cc3ccc(S(=O)(=O)C4CC4)cc3)C2)C1)N1CC2(CC(c3nc(C4CC4)n[nH]3)C2)C1 [compound 859] |
| 9.35 | N#Cc1cc(C(F)(F)F)ccc1CC1CC2(C1)CN(C(=O)N1CC3(CC(c4nnc(C5CC5)[nH]4)C3)C1)C2 [compound 556] |
| 9.15 | CS(=O)(=O)c1cc(F)ccc1CC1CC2(C1)CN(C(=O)N1CC3(CC(c4nnc(C5CC5)[nH]4)C3)C1)C2 [compound 24] |
| 7.76 | O=C(N1CC2(CC(c3nnc(C4CC4)[nH]3)C2)C1)N1CC2(C1)CN(S(=O)(=O)NC1(C(F)(F)F)CC1)C2 [compound 215] |
| 9.03 | O=C(N1CC2(CC(Cc3ncc(C(F)(F)F)cn3)C2)C1)N1CC2(CC(c3nnc(C4CC4)[nH]3)C2)C1 [compound 28] |
| 7.50 | O=C(N1CC2(CC(c3nnc(C4CC4)[nH]3)C2)C1)N1CC2(CCN(Cc3ccc(C(F)(F)F)nn3)C2)C1 [compound 183] |
| 9.25 | Cc1cc(C)n(-c2ccc(C3CN(C(=O)N4CC5(CC(c6nnc(C7CC7)[nH]6)C5)C4)C3)cc2)n1 [compound 294] |
| 8.18 | CP(C)(=O)c1ccc(CC2CC3(C2)CN(C(=O)N2CC4(CC(c5nnc(C6CC6)[nH]5)C4)C2)C3)cc1 [compound 926] |
| 6.02 | O=C(N1CC(c2ccc(C3(C(F)(F)F)CC3)cc2)C1)N1CC2(CC(c3ncn[nH]3)C2)C1 [compound 635] |
| 8.62 | Cc1cc(C2CC2)n(C23CC(C4CN(C(=O)N5CC6(CC(c7nc(C8CC8)n[nH]7)C6)C5)C4)(C2)C3)n1 [compound 587] |
| 8.14 | O=C(N1CC2(CC(NC3(C(F)(F)F)CC3)C2)C1)N1CC2(CC(c3nnc(C4CC4)[nH]3)C2)C1 [compound 70] |
| 8.32 | CS(=O)(=O)c1cc(F)cc(CC2CC3(C2)CN(C(=O)N2CC4(CC(c5nnc(C6(O)CC6)[nH]5)C4)C2)C3)c1 [compound 19] |
| 9.28 | O=C(N1CC2(CC(Cc3nc(C(F)(F)F)ns3)C2)C1)N1CC2(CC(c3nnc(C4CC4)[nH]3)C2)C1 [compound 59] |
| 7.47 | O=C(N1CC2(CC(Cc3nc(C(F)(F)F)cs3)C2)C1)N1CC2(CC(c3nc(C4COC4)n[nH]3)C2)C1 [compound 783] |
| 8.76 | O=C(N1CC2(CC(Oc3cncc(C(F)(F)F)n3)C2)C1)N1CC2(CC(c3nnc(C4CC4)[nH]3)C2)C1 [compound 133] |
| 5.60 | COc1cc(COC2CCN(C(=O)N3CC4(CC(c5nc(C6CC6)n[nH]5)C4)C3)CC2)ccc1C(N)=O [Example 980, 4-[[1-[6-(3-cyclopropyl-1H-1,2,4-triazol-5-yl)-2-azaspiro[3.3]heptane-2-carbonyl]-4-piperidyl]oxymethyl]-2-methoxy-benzamide] |
| 8.05 | CS(=O)(=O)c1cc(F)ccc1OC1CCC2(CC1)CN(C(=O)N1CC3(CC(c4nnc(C5CC5)[nH]4)C3)C1)C2 [compound 355] |
| 7.16 | N#Cc1cnn(CC2CC3(C2)CN(C(=O)N2CC4(CC(c5nc(C6(O)CC6)n[nH]5)C4)C2)C3)c1 [compound 719] |
| 11.00 | O=C(N1CC2(CC(Cc3cc(F)cc(C(F)(F)F)c3)C2)C1)N1CC2(CC(c3nnc(C4CC4)[nH]3)C2)C1 [compound 121] |
| 8.02 | O=C(N1CC2(CC(c3nc(C4CC4)n[nH]3)C2)C1)N1CC2(CN(Cc3cnc(C(F)F)s3)C2)C1 [compound 651] |
| 6.39 | O=C(N1CC2(CC(Cc3ncc(F)cc3Cl)C2)C1)N1CC2(CC(c3ncn[nH]3)C2)C1 [compound 789] |
| 8.57 | O=C(N1CC2(CC(Cc3cnn(C(F)(F)F)c3)C2)C1)N1CC2(CC(c3nc(C4(O)CC4)n[nH]3)C2)C1 [compound 727] |

| pIC50 | SMILES |
| --- | --- |
| 9.57 | CS(=O)(=O)c1ccc(CC2CC3(C2)CN(C(=O)N2CC4(CC(c5nnc(C6(O)CC6)[nH]5)C4)C2)C3)cc1C(F)(F)F [compound 47] |
| 8.53 | O=C(N1CC2(CC(c3nnc(C4CC4)[nH]3)C2)C1)N1CC2(C1)CN(S(=O)(=O)c1ccccc1C(F)(F)F)C2 [compound 96] |
| 8.20 | N=S(=O)(c1ccc(C2CN(C(=O)N3CC4(CC(c5nc(C6CC6)n[nH]5)C4)C3)C2)cc1)C1CC1 (stereo not drawn) [compound 745] |
| 8.23 | O=C(N1CC2(CCN(Cc3ncc(C(F)F)s3)CC2)C1)N1CC2(CC(c3nc(C4CC4)n[nH]3)C2)C1 [compound 507] |
| 8.78 | O=C(N1CC2(CC(Cc3cc(C(F)F)[nH]n3)C2)C1)N1CC2(CC(c3nc(C4(O)CC4)n[nH]3)C2)C1 [compound 615] |
| 7.84 | O=C(N1CC2(CCC(Cc3ncc(F)cc3F)CC2)C1)N1CC2(CC(c3nnc(C4(O)CC4)[nH]3)C2)C1 [compound 143] |
| 9.01 | O=C(N1CC(C23CC(Cc4ccc(C(F)(F)F)cc4F)(C2)C3)C1)N1CC2(CC(c3nc(C4CC4)n[nH]3)C2)C1 [compound 527] |
| 8.65 | N#CC1(c2ccc(C3CN(C(=O)N4CC5(CC(c6nnc(C7CC7)[nH]6)C5)C4)C3)cc2)CC1 [compound 376] |
| 8.52 | N=S(=O)(c1cnn(CC2CC3(C2)CN(C(=O)N2CC4(CC(c5nc(C6CC6)n[nH]5)C4)C2)C3)c1)C(F)(F)F (stereo not drawn) [compound 950] |
| 7.22 | CS(=O)(=O)c1ccc(COC2CN(C(=O)N3CC4(CC(c5nnc(C6CC6)[nH]5)C4)C3)C2)c(F)c1 [compound 330] |
| 9.57 | O=C(N1CC(c2ccc(-n3nc(C(F)F)cc3C3CC3)cc2)C1)N1CC2(CC(c3nnc(C4CC4)[nH]3)C2)C1 [compound 839] |
| 9.16 | CS(=O)(=O)c1ccc(CC2CCC3(C2)CN(C(=O)N2CC4(CC(c5nnc(C6CC6)[nH]5)C4)C2)C3)cc1 (stereo not drawn) [compound 77] |
| 8.82 | O=C(N1CC2(CC(c3nc(C4(O)CC4)n[nH]3)C2)C1)N1CC2(CN(Cc3ccc(S(=O)(=O)C(F)(F)F)cc3F)C2)C1 [compound 451] |
| 7.34 | O=C(N1CC(NCc2ccc(C(F)(F)F)c(F)c2)C1)N1CC2(CC(c3nnc(C4CC4)[nH]3)C2)C1 [compound 193] |
| 8.28 | O=C(N1CC2(CC(c3nc(C4CC4)n[nH]3)C2)C1)N1CC2(CN(Cc3nc(C(F)(F)F)cs3)C2)C1 [compound 430] |
| 6.85 | O=C(N1CC2(CC(Cc3cc(C(F)F)[nH]n3)C2)C1)N1CC2(CC(c3nc(C4CC(F)(F)C4)n[nH]3)C2)C1 [compound 495] |
| 8.72 | O=C(N1CC(c2ccc(OCC3(C(F)(F)F)CC3)cc2)C1)N1CC2(CC(c3nnc(C4(O)CC4)[nH]3)C2)C1 [compound 375] |
| 6.25 | N=S(=O)(c1cccc(CC2CC3(C2)CN(C(=O)N2CC4(CC(c5ncn[nH]5)C4)C2)C3)c1)C(F)(F)F (stereo not drawn) [compound 734] |
| 9.04 | O=C(N1CC2(CCN(Cc3cccc(S(=O)(=O)C(F)(F)F)c3)CC2)C1)N1CC2(CC(c3nnc(C4CC4)[nH]3)C2)C1 [compound 180] |
| 8.39 | O=C(N1CC2(CC(c3nnc(C4CC4)[nH]3)C2)C1)N1CC2(CN(Cc3ccc(C(F)(F)F)cn3)C2)C1 [compound 163] |
| 8.86 | O=C(N1CC2(CCC(S(=O)(=O)c3ccc(C(F)(F)F)cc3)CC2)C1)N1CC2(CC(c3nc(C4CC4)n[nH]3)C2)C1 [compound 723] |
| 9.29 | O=C(N1CC2(CCC(Cc3cnc(C(F)(F)F)cn3)C2)C1)N1CC2(CC(c3nnc(C4CC4)[nH]3)C2)C1 (single isomer, unassigned) [compound 151] |
| 9.20 | O=C(N1CC2(CCC(NS(=O)(=O)c3cccc(OC(F)(F)F)c3)CC2)C1)N1CC2(CC(c3nnc(C4CC4)[nH]3)C2)C1 [compound 348] |
| 9.21 | O=C(N1CC2(CC(Cc3ccc(S(=O)(=O)C(F)(F)F)cc3)C2)C1)N1CC2(CC(c3nc(C4COC4)n[nH]3)C2)C1 [compound 755] |
| 9.48 | O=C(N1CC2(CC(NS(=O)(=O)c3ccc(C(F)(F)F)cc3)C2)C1)N1CC2(CC(c3nnc(C4CC4)[nH]3)C2)C1 [compound 223] |
| 8.43 | O=C(N1CC2(CC(c3nnc(C4CC4)[nH]3)C2)C1)N1CC2(C1)CN(S(=O)(=O)c1cc(F)cc(C(F)(F)F)c1)C2 [compound 101] |
| 6.68 | O=C(N1CC2(CC(c3nnc(C4CC4)[nH]3)C2)C1)N1CC2(CC(N3CCS(=O)(=O)CC3)C2)C1 [compound 220] |
